Laboratory results published in patent US6521567B2, “Herbicidal composition” (priority 2001, dated 2003).

Tested on: common cocklebur
Experiment: Test Example 4: field spray, herbicidal activity (flumiclorac-pentyl)
Assay type: in vivo, Xanthium strumarium
Settings: index 0-100; common cocklebur height about 65 cm; 100 g/hectare alone; 1000 liters per hectare spray; after 4 days
Experimental: The herbicidal effect is evaluated with indices of 0 to 100 at intervals of 5, wherein “0” means that there was no or little difference in the degree of germination or growth between the treated plants and the untreated plants at the time of examination, “100” means that the test plants died completely.
Ten (10) parts of flumiclorac-pentyl were dissolved in 80 parts of xylene, after adding 10 parts of Sorpol 3005X (produced by Toho Chemical), the solution was well stirred and mixed to give 10% emulsifiable concentrate of flumiclorac-pentyl. From the aqueous dilution of said 10% emulsifiable concentrate of flumiclorac-pentyl, with a aqueous dilution of 25% emulsifiable concentrate of thiometon (commercial name: Ekatin EC, produced by Sankyo), 45% emulsifiable concentrate of oxydeprofos (commercial name: Estox EC, produced by Nihon Bayer Agrochem) or 50% emulsifiable concentrate of fenthion (commercial name: baycid EC, produced by Nihon Bayer Agrochem), prepared each aqueous dilution of the prescribed concentration of the present formulation.
Their aqueous dilution of the present formulation, with 1000 liters per hectare, were sprayed over a place in the field where common cocklebur (the height: about 65 cm) were growing. After 4 days from the application, the herbicidal activity were examined.

CCCCCOC(=O)COc1cc(N2C(=O)C3=C(CCCC3)C2=O)c(F)cc1Cl [flumiclorac-pentyl, pentyl[2-chloro-5-(cyclohex-1-ene-1,2-dicarboximido)-4-fluorophenoxy]acetate]
Herbicidal activity: 30
